Reference: ChEMBL document CHEMBL2046368, “New triterpenoid saponins from cacti and anti-type I allergy activity of saponins from cactus” (Bioorg Med Chem Lett, 2012)

Tested on: RBL-2H3
Experiment: Anti-type1 allergic activity in rat RBL2H3 cells using p-nitrophenyl-2-acdetamido-2-deoxy-beta-D-glucopyranoside as substrate assessed as inhibition of beta-hexosaminidase release at 200 uM incubated for 10 mins prior to substrate addition measured after 60 mins by spectrophotometry
Format: functional

SMILES | inhibition at 200 µM [%]
C[C@@H]1O[C@@H](O[C@H]2[C@H](O[C@H]3[C@H](O[C@H]4CC[C@]5(C)[C@H]6CC=C7[C@@H]8CC(C)(C)C[C@H](O)[C@]89C[C@@H](OC9=O)[C@@]7(C)[C@]6(C)CC[C@H]5C4(C)C)O[C@H](C(=O)O)[C@@H](O)[C@@H]3O)O[C@H](CO)[C@@H](O)[C@@H]2O)[C@H](O)[C@H](O)[C@H]1O [DUMORTIERINOSIDE A] | 32.5

Tested on: RBL-2H3
Experiment: Anti-type1 allergic activity in rat RBL2H3 cells using p-nitrophenyl-2-acdetamido-2-deoxy-beta-D-glucopyranoside as substrate assessed as inhibition of beta-hexosaminidase release at 100 uM incubated for 10 mins prior to substrate addition measured after 60 mins by spectrophotometry
Format: functional

SMILES | inhibition at 100 µM [%]
COC(=O)[C@H]1O[C@@H](O[C@H]2CC[C@]3(C)[C@H]4CC=C5[C@@H]6CC(C)(C)C[C@H](O)[C@]67C[C@@H](OC7=O)[C@@]5(C)[C@]4(C)CC[C@H]3C2(C)C)[C@H](O[C@@H]2O[C@H](CO)[C@@H](O)[C@H](O)[C@H]2O[C@@H]2O[C@@H](C)[C@H](O)[C@@H](O)[C@H]2O)[C@@H](O)[C@@H]1O | 40.3

Tested on: RBL-2H3
Experiment: Anti-type1 allergic activity in rat RBL2H3 cells using p-nitrophenyl-2-acdetamido-2-deoxy-beta-D-glucopyranoside as substrate assessed as inhibition of beta-hexosaminidase release incubated for 10 mins prior to substrate addition measured after 60 mins by spectrophotometry
Format: functional, cell-based

SMILES | IC50 [µM]
C[C@@H]1O[C@@H](O[C@@H]2[C@@H](O)[C@@H](O)[C@H](O[C@H]3[C@H](O[C@H]4CC[C@]5(C)[C@H]6CC[C@@H]7[C@H]8[C@H](C(C)(C)O)[C@@H]9C[C@@]8(CC[C@@]7(C)[C@]6(C)CC[C@H]5C4(C)C)C(=O)O9)O[C@H](C(=O)O)[C@@H](O)[C@@H]3O)O[C@H]2C)[C@H](O)[C@H](O)[C@H]1O [STELLATOSIDE A] | > 200
CC(=O)O[C@H]1CC(C)(C)C[C@H]2C3=CC[C@@H]4[C@@]5(C)CC[C@H](O[C@@H]6O[C@H](C(=O)O)[C@@H](O)[C@H](O[C@@H]7OC[C@@H](O)[C@H](O)[C@H]7O)[C@H]6O[C@@H]6O[C@H](CO)[C@@H](O)[C@H](O)[C@H]6O)C(C)(C)[C@@H]5CC[C@@]4(C)[C@]34OC(=O)[C@]12C[C@@H]4C [PACHANOSIDE I1] | > 200
C=C(C)[C@H]1[C@@H]2[C@H]3CC[C@@H]4[C@@]5(C)CC[C@H](O[C@@H]6O[C@H](C(=O)O)[C@@H](O)[C@H](O[C@@H]7O[C@@H](C)[C@H](O)[C@@H](O)[C@H]7O)[C@H]6O[C@@H]6O[C@@H](C)[C@H](O)[C@@H](O)[C@H]6O)C(C)(C)[C@@H]5CC[C@@]4(C)[C@]3(C)CC[C@@]23C[C@@H]1OC3=O [THURBEROSIDE A] | 167
CC(=O)OC[C@]1(C)C[C@H]2C3=CC[C@@H]4[C@@]5(C)CC[C@H](O[C@@H]6O[C@H](C(=O)O)[C@@H](O)[C@H](O)[C@H]6O[C@@H]6O[C@H](CO)[C@@H](O)[C@H](O)[C@H]6O[C@@H]6O[C@@H](C)[C@H](O)[C@@H](O)[C@H]6O)C(C)(C)[C@@H]5CC[C@@]4(C)[C@]3(C)[C@H]3C[C@]2(C[C@@H]1O)C(=O)O3 [BRIDGESIDE D2] | > 200
CC1(C)CC[C@]2(C=O)[C@@H](O)C[C@]3(C)C(=CC[C@@H]4[C@@]5(C)CC[C@H](O[C@@H]6O[C@H](C(=O)O)[C@@H](O)[C@H](O[C@@H]7O[C@H](CO)[C@@H](O)[C@H](O)[C@H]7O)[C@H]6O[C@@H]6O[C@H](CO)[C@@H](O)[C@H](O)[C@H]6O)C(C)(C)[C@@H]5CC[C@]43C)[C@@H]2C1 [GUMMOSOSIDE A] | > 200
C[C@@H]1O[C@@H](O[C@H]2[C@H](O[C@H]3[C@H](O[C@H]4CC[C@]5(C)[C@H]6CC=C7[C@@H]8CC(C)(C)C[C@H](O)[C@]89C[C@@H](OC9=O)[C@@]7(C)[C@]6(C)CC[C@H]5C4(C)C)O[C@H](C(=O)O)[C@@H](O)[C@@H]3O)O[C@H](CO)[C@@H](O)[C@@H]2O)[C@H](O)[C@H](O)[C@H]1O [DUMORTIERINOSIDE A] | > 200
CC(=O)OC[C@]1(C)C[C@H]2C3=CC[C@@H]4[C@@]5(C)CC[C@H](O[C@@H]6O[C@H](C(=O)O)[C@@H](O)[C@H](O)[C@H]6O[C@@H]6O[C@H](CO)[C@@H](O)[C@H](O)[C@H]6O[C@@H]6OC[C@@H](O)[C@H](O)[C@H]6O)C(C)(C)[C@@H]5CC[C@@]4(C)[C@]3(C)[C@H]3C[C@]2(C[C@@H]1O)C(=O)O3 [BRIDGESIDE D1] | > 200
CC(C)(O)[C@H]1[C@@H]2[C@H]3CC[C@@H]4[C@@]5(C)CC[C@H](O[C@@H]6O[C@H](C(=O)O)[C@@H](O)[C@H](O)[C@H]6O[C@@H]6O[C@H](CO)[C@@H](O)[C@H](O)[C@H]6O[C@@H]6OC[C@@H](O)[C@H](O)[C@H]6O)C(C)(C)[C@@H]5CC[C@@]4(C)[C@]3(C)CC[C@@]23C[C@@H]1OC3=O [STELLATOSIDE B] | > 200
C[C@@H]1O[C@@H](O[C@@H]2[C@@H](O)[C@H](O[C@H]3CC[C@]4(C)[C@H]5CC=C6[C@@H]7CC(C)(C)CC[C@]7(C(=O)O[C@@H]7O[C@H](CO)[C@@H](O)[C@H](O)[C@H]7O)CC[C@@]6(C)[C@]5(C)CC[C@H]4C3(C)C)O[C@H](C(=O)O)[C@H]2O)[C@H](O)[C@H](O)[C@H]1O | > 200
COC(=O)[C@H]1O[C@@H](O[C@H]2CC[C@]3(C)[C@H]4CC=C5[C@@H]6CC(C)(C)C[C@H](O)[C@]67C[C@@H](OC7=O)[C@@]5(C)[C@]4(C)CC[C@H]3C2(C)C)[C@H](O[C@@H]2O[C@H](CO)[C@@H](O)[C@H](O)[C@H]2O[C@@H]2O[C@@H](C)[C@H](O)[C@@H](O)[C@H]2O)[C@@H](O)[C@@H]1O | > 200
COC(=O)[C@H]1O[C@@H](O[C@H]2CC[C@]3(C)[C@H]4CC=C5[C@@H]6CC(C)(C)CC[C@]6(C=O)[C@@H](O)C[C@@]5(C)[C@]4(C)CC[C@H]3C2(C)C)[C@H](O[C@@H]2O[C@H](CO)[C@@H](O)[C@H](O)[C@H]2O)[C@@H](O[C@@H]2O[C@H](CO)[C@@H](O)[C@H](O)[C@H]2O)[C@@H]1O [GUMMOSOSIDE A METHYL ESTER] | 99.5
C[C@H]1C[C@]23C(=O)O[C@@]14C(=CC[C@@H]1[C@@]5(C)CC[C@H](O[C@@H]6O[C@H](C(=O)O)[C@@H](O)[C@H](O[C@@H]7OC[C@@H](O)[C@H](O)[C@H]7O)[C@H]6O[C@@H]6O[C@H](CO)[C@@H](O)[C@H](O)[C@H]6O)C(C)(C)[C@@H]5CC[C@]14C)[C@@H]2CC(C)(C)C[C@@H]3O[C@@H]1O[C@H](C(=O)O)[C@@H](O)[C@H](O)[C@H]1O [PACHANOSIDE D1] | > 200
C[C@@H]1O[C@@H](O[C@H]2[C@H](O[C@H]3[C@H](O[C@H]4CC[C@]5(C)[C@H]6CC=C7[C@@H]8C[C@@](C)(CO)[C@@H](O)C[C@]89C[C@@H](OC9=O)[C@@]7(C)[C@]6(C)CC[C@H]5C4(C)C)O[C@H](C(=O)O)[C@@H](O)[C@@H]3O)O[C@H](CO)[C@@H](O)[C@@H]2O)[C@H](O)[C@H](O)[C@H]1O [BRIDGESIDE A1] | > 200
C[C@@H]1O[C@@H](O[C@H]2[C@H](O[C@H]3CC[C@]4(C)[C@H]5CC[C@@H]6[C@H]7[C@H](C(C)(C)O)[C@@H]8C[C@@]7(CC[C@@]6(C)[C@]5(C)CC[C@H]4C3(C)C)C(=O)O8)O[C@H](C(=O)O)[C@@H](O)[C@@H]2O[C@@H]2O[C@@H](C)[C@H](O)[C@@H](O)[C@H]2O)[C@H](O)[C@H](O)[C@H]1O [STELLATOSIDE C] | > 200
C=C(C)[C@@H]1CC[C@]2(C(=O)O[C@@H]3O[C@H](CO)[C@@H](O)[C@H](O)[C@H]3O)CC[C@]3(C)[C@H](CC[C@@H]4[C@@]5(C)CC[C@H](O[C@@H]6O[C@H](C(=O)O)[C@@H](O)[C@H](O[C@@H]7O[C@@H](C)[C@H](O)[C@@H](O)[C@H]7O)[C@H]6O[C@@H]6O[C@@H](C)[C@H](O)[C@@H](O)[C@H]6O)C(C)(C)[C@@H]5CC[C@]43C)[C@@H]12 [ERUCASAPONIN A] | > 200
